In the NIST ThermoML archive (doi:10.1016/j.jct.2006.05.008):
± gives the expanded uncertainty stated by the source.

Experiment: molar heat capacity at constant pressure
Details: 101.33 kPa

CCC[n+]1ccn(C)c1.[Br-] [1-methyl-3-propylimidazolium bromide]
Details	molar heat capacity at constant pressure [J/K/mol]
79.74 K, Crystal, Vacuum adiabatic calorimetry	92.59 ± 0.23
79.94 K, Crystal, Vacuum adiabatic calorimetry	92.76 ± 0.23
81.02 K, Metastable crystal, Small (less than 1 g) adiabatic calorimetry	99.02 ± 0.59
81.27 K, Crystal, Vacuum adiabatic calorimetry	93.84 ± 0.23
81.34 K, Glass, Small (less than 1 g) adiabatic calorimetry	99.34 ± 0.6
82.19 K, Crystal, Vacuum adiabatic calorimetry	94.55 ± 0.23
82.6 K, Crystal, Vacuum adiabatic calorimetry	94.86 ± 0.23
83.24 K, Metastable crystal, Small (less than 1 g) adiabatic calorimetry	100.47 ± 0.6
83.87 K, Glass, Small (less than 1 g) adiabatic calorimetry	101.14 ± 0.61
83.93 K, Crystal, Vacuum adiabatic calorimetry	95.59 ± 0.23
84.2 K, Crystal, Vacuum adiabatic calorimetry	95.76 ± 0.23
85.27 K, Crystal, Vacuum adiabatic calorimetry	96.54 ± 0.23
85.49 K, Metastable crystal, Small (less than 1 g) adiabatic calorimetry	101.89 ± 0.61
86.22 K, Crystal, Vacuum adiabatic calorimetry	97.26 ± 0.24
86.42 K, Glass, Small (less than 1 g) adiabatic calorimetry	103.04 ± 0.62
86.6 K, Crystal, Vacuum adiabatic calorimetry	97.57 ± 0.24
87.75 K, Metastable crystal, Small (less than 1 g) adiabatic calorimetry	103.44 ± 0.62
87.94 K, Crystal, Vacuum adiabatic calorimetry	98.49 ± 0.24
88.23 K, Crystal, Vacuum adiabatic calorimetry	98.81 ± 0.24
89 K, Glass, Small (less than 1 g) adiabatic calorimetry	105.01 ± 0.63
89.27 K, Crystal, Vacuum adiabatic calorimetry	99.53 ± 0.25
90.04 K, Metastable crystal, Small (less than 1 g) adiabatic calorimetry	104.98 ± 0.62
90.61 K, Crystal, Vacuum adiabatic calorimetry	100.47 ± 0.3
91.6 K, Glass, Small (less than 1 g) adiabatic calorimetry	106.89 ± 0.63
91.95 K, Crystal, Vacuum adiabatic calorimetry	101.38 ± 0.3
92.27 K, Crystal, Vacuum adiabatic calorimetry	101.66 ± 0.3
92.34 K, Metastable crystal, Small (less than 1 g) adiabatic calorimetry	106.48 ± 0.63
93.29 K, Crystal, Vacuum adiabatic calorimetry	102.41 ± 0.3
94.22 K, Glass, Small (less than 1 g) adiabatic calorimetry	108.72 ± 0.64
94.29 K, Crystal, Vacuum adiabatic calorimetry	103.09 ± 0.3
94.64 K, Crystal, Vacuum adiabatic calorimetry	103.36 ± 0.3
94.66 K, Metastable crystal, Small (less than 1 g) adiabatic calorimetry	107.94 ± 0.63
95.98 K, Crystal, Vacuum adiabatic calorimetry	104.28 ± 0.31
96.31 K, Crystal, Vacuum adiabatic calorimetry	104.51 ± 0.31
96.86 K, Glass, Small (less than 1 g) adiabatic calorimetry	110.58 ± 0.64
97 K, Metastable crystal, Small (less than 1 g) adiabatic calorimetry	109.41 ± 0.64
97.33 K, Crystal, Vacuum adiabatic calorimetry	105.24 ± 0.31
98.33 K, Crystal, Vacuum adiabatic calorimetry	105.88 ± 0.31
98.67 K, Crystal, Vacuum adiabatic calorimetry	106.05 ± 0.31
99.35 K, Metastable crystal, Small (less than 1 g) adiabatic calorimetry	110.84 ± 0.64
99.51 K, Glass, Small (less than 1 g) adiabatic calorimetry	112.37 ± 0.65
100.03 K, Crystal, Vacuum adiabatic calorimetry	106.92 ± 0.31
100.36 K, Crystal, Vacuum adiabatic calorimetry	107.18 ± 0.31
101.38 K, Crystal, Vacuum adiabatic calorimetry	107.81 ± 0.31
101.71 K, Metastable crystal, Small (less than 1 g) adiabatic calorimetry	112.27 ± 0.65
102.18 K, Glass, Small (less than 1 g) adiabatic calorimetry	114.14 ± 0.66
102.39 K, Crystal, Vacuum adiabatic calorimetry	108.44 ± 0.31
102.74 K, Crystal, Vacuum adiabatic calorimetry	108.69 ± 0.31
104.09 K, Crystal, Vacuum adiabatic calorimetry	109.46 ± 0.31
104.09 K, Metastable crystal, Small (less than 1 g) adiabatic calorimetry	113.67 ± 0.65
104.42 K, Crystal, Vacuum adiabatic calorimetry	109.77 ± 0.31
104.87 K, Glass, Small (less than 1 g) adiabatic calorimetry	115.91 ± 0.66
105.45 K, Crystal, Vacuum adiabatic calorimetry	110.36 ± 0.31
106.45 K, Crystal, Vacuum adiabatic calorimetry	111.06 ± 0.31
106.47 K, Metastable crystal, Small (less than 1 g) adiabatic calorimetry	115.09 ± 0.66
106.81 K, Crystal, Vacuum adiabatic calorimetry	111.31 ± 0.31
107.56 K, Glass, Small (less than 1 g) adiabatic calorimetry	117.68 ± 0.67
108.17 K, Crystal, Vacuum adiabatic calorimetry	112.14 ± 0.31
108.48 K, Crystal, Vacuum adiabatic calorimetry	112.42 ± 0.31
108.88 K, Metastable crystal, Small (less than 1 g) adiabatic calorimetry	116.5 ± 0.67
109.53 K, Crystal, Vacuum adiabatic calorimetry	112.92 ± 0.31
110.28 K, Glass, Small (less than 1 g) adiabatic calorimetry	119.33 ± 0.68
110.52 K, Crystal, Vacuum adiabatic calorimetry	113.6 ± 0.31
110.89 K, Crystal, Vacuum adiabatic calorimetry	113.71 ± 0.31
111.29 K, Metastable crystal, Small (less than 1 g) adiabatic calorimetry	117.82 ± 0.67
112.25 K, Crystal, Vacuum adiabatic calorimetry	114.5 ± 0.31
112.57 K, Crystal, Vacuum adiabatic calorimetry	114.76 ± 0.32
113 K, Glass, Small (less than 1 g) adiabatic calorimetry	121 ± 0.69
113.61 K, Crystal, Vacuum adiabatic calorimetry	115.32 ± 0.32
113.71 K, Metastable crystal, Small (less than 1 g) adiabatic calorimetry	119.15 ± 0.68
114.61 K, Crystal, Vacuum adiabatic calorimetry	115.9 ± 0.32
114.97 K, Crystal, Vacuum adiabatic calorimetry	116.19 ± 0.32
115.74 K, Glass, Small (less than 1 g) adiabatic calorimetry	122.66 ± 0.69
116.15 K, Metastable crystal, Small (less than 1 g) adiabatic calorimetry	120.5 ± 0.68
116.34 K, Crystal, Vacuum adiabatic calorimetry	116.93 ± 0.32
116.65 K, Crystal, Vacuum adiabatic calorimetry	117.03 ± 0.32
117.71 K, Crystal, Vacuum adiabatic calorimetry	117.69 ± 0.32
118.48 K, Glass, Small (less than 1 g) adiabatic calorimetry	124.31 ± 0.7
118.59 K, Metastable crystal, Small (less than 1 g) adiabatic calorimetry	121.83 ± 0.69
118.69 K, Crystal, Vacuum adiabatic calorimetry	118.24 ± 0.32
119.07 K, Crystal, Vacuum adiabatic calorimetry	118.47 ± 0.32
120.44 K, Crystal, Vacuum adiabatic calorimetry	119.22 ± 0.32
120.73 K, Crystal, Vacuum adiabatic calorimetry	119.36 ± 0.32
121.04 K, Metastable crystal, Small (less than 1 g) adiabatic calorimetry	123.15 ± 0.69
121.24 K, Glass, Small (less than 1 g) adiabatic calorimetry	125.94 ± 0.7
121.82 K, Crystal, Vacuum adiabatic calorimetry	120.01 ± 0.32
122.78 K, Crystal, Vacuum adiabatic calorimetry	120.51 ± 0.32
123.19 K, Crystal, Vacuum adiabatic calorimetry	120.74 ± 0.32
123.49 K, Metastable crystal, Small (less than 1 g) adiabatic calorimetry	124.47 ± 0.7
124.01 K, Glass, Small (less than 1 g) adiabatic calorimetry	127.58 ± 0.71
124.56 K, Crystal, Vacuum adiabatic calorimetry	121.49 ± 0.32
124.82 K, Crystal, Vacuum adiabatic calorimetry	121.64 ± 0.32
125.93 K, Crystal, Vacuum adiabatic calorimetry	122.24 ± 0.32
125.95 K, Metastable crystal, Small (less than 1 g) adiabatic calorimetry	125.81 ± 0.7
126.78 K, Glass, Small (less than 1 g) adiabatic calorimetry	129.18 ± 0.72
126.87 K, Crystal, Vacuum adiabatic calorimetry	122.8 ± 0.32
127.3 K, Crystal, Vacuum adiabatic calorimetry	122.93 ± 0.32
128.42 K, Metastable crystal, Small (less than 1 g) adiabatic calorimetry	127.1 ± 0.71
128.67 K, Crystal, Vacuum adiabatic calorimetry	123.68 ± 0.32
128.92 K, Crystal, Vacuum adiabatic calorimetry	123.91 ± 0.32
129.56 K, Glass, Small (less than 1 g) adiabatic calorimetry	130.84 ± 0.72
130.04 K, Crystal, Vacuum adiabatic calorimetry	124.38 ± 0.32
130.89 K, Metastable crystal, Small (less than 1 g) adiabatic calorimetry	128.38 ± 0.71
130.97 K, Crystal, Vacuum adiabatic calorimetry	125.11 ± 0.33
131.41 K, Crystal, Vacuum adiabatic calorimetry	125.15 ± 0.33
132.34 K, Glass, Small (less than 1 g) adiabatic calorimetry	132.48 ± 0.73
132.79 K, Crystal, Vacuum adiabatic calorimetry	125.91 ± 0.33
133.03 K, Crystal, Vacuum adiabatic calorimetry	126.19 ± 0.33
133.37 K, Metastable crystal, Small (less than 1 g) adiabatic calorimetry	129.68 ± 0.72
134.16 K, Crystal, Vacuum adiabatic calorimetry	126.6 ± 0.33
135.08 K, Crystal, Vacuum adiabatic calorimetry	127.08 ± 0.33
135.13 K, Glass, Small (less than 1 g) adiabatic calorimetry	134.09 ± 0.74
135.53 K, Crystal, Vacuum adiabatic calorimetry	127.32 ± 0.33
135.85 K, Metastable crystal, Small (less than 1 g) adiabatic calorimetry	130.98 ± 0.72
136.16 K, Crystal, Vacuum adiabatic calorimetry	127.66 ± 0.33
136.91 K, Crystal, Vacuum adiabatic calorimetry	128.04 ± 0.33
137.14 K, Crystal, Vacuum adiabatic calorimetry	128.2 ± 0.33
137.92 K, Glass, Small (less than 1 g) adiabatic calorimetry	135.74 ± 0.74
138.28 K, Crystal, Vacuum adiabatic calorimetry	128.82 ± 0.33
138.34 K, Metastable crystal, Small (less than 1 g) adiabatic calorimetry	132.27 ± 0.73
138.66 K, Crystal, Vacuum adiabatic calorimetry	129 ± 0.33
139.66 K, Crystal, Vacuum adiabatic calorimetry	129.53 ± 0.33
140.72 K, Crystal, Vacuum adiabatic calorimetry	130.08 ± 0.33
140.72 K, Glass, Small (less than 1 g) adiabatic calorimetry	137.41 ± 0.75
140.83 K, Metastable crystal, Small (less than 1 g) adiabatic calorimetry	133.54 ± 0.73
141.03 K, Crystal, Vacuum adiabatic calorimetry	130.25 ± 0.33
142.4 K, Crystal, Vacuum adiabatic calorimetry	130.91 ± 0.33
142.78 K, Crystal, Vacuum adiabatic calorimetry	131.16 ± 0.33
143.33 K, Metastable crystal, Small (less than 1 g) adiabatic calorimetry	134.81 ± 0.74
143.52 K, Glass, Small (less than 1 g) adiabatic calorimetry	139.08 ± 0.76
143.79 K, Crystal, Vacuum adiabatic calorimetry	131.72 ± 0.33
144.84 K, Crystal, Vacuum adiabatic calorimetry	132.23 ± 0.33
145.17 K, Crystal, Vacuum adiabatic calorimetry	132.41 ± 0.33
145.82 K, Metastable crystal, Small (less than 1 g) adiabatic calorimetry	136.13 ± 0.74
